# Reference: patent US9296687B2, “Modulators of HSP70/DnaK function and methods of use thereof” (The Trustees of the University of Pennsylvania, priority 2008, dated 2016)
# Entries after “also recorded” stand apart in the source; their conditions may differ.
# Assays:
# HSP70 [1] = target: HSP70 (Homo sapiens, UniProt P0DMV8); test: Immunoprecipitation-western blot of HSP70 complexes with co-chaperones and substrate proteins; format: cell-based; set-up: endogenous in cells; host or cells: human tumor cell lines (A875, BX-U2OS, U2OS, H1299, MiaPaCa2, HepG2, SKBR3, 293T)
# HSP70 (Homo sapiens, UniProt P0DMV8), sequence (P0DMV8 whole entry): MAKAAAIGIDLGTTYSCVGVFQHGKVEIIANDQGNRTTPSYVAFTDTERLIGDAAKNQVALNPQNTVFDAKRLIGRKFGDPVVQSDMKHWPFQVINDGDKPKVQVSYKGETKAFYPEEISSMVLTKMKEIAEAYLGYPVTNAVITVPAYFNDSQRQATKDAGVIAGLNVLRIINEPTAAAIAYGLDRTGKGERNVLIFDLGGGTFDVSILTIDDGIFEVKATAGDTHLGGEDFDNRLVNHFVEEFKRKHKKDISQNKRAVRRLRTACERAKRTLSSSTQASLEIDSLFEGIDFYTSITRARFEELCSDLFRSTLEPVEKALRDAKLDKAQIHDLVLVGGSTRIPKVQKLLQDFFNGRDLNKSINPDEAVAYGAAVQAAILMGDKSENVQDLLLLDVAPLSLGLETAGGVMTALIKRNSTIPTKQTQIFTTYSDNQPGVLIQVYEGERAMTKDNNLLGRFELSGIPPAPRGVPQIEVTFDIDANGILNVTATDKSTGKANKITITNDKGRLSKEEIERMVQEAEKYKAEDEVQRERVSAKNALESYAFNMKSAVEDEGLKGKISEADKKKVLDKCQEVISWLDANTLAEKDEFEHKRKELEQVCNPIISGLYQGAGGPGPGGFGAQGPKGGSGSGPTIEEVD
# FADU cells = test: Colony formation assay with gamma radiation; format: cell-based, human; conditions: PES 10 μM + 10 Gy
# Protocol: (§1) Fadu or Scc 61 (squamous cell carcinoma of the head and neck) cell lines were grown in DMEM supplemented with 10% fetal bovine serum and antibiotics. Cells were pre-treated with PES (10 μM) for 24 hr after which they were subject to gamma radiation (either 2 or 10 Gy) and plated at different densities in 6 well plates; the wells depicted were plated at 2000 cells/well. After 10 days, colonies were stained with crystal violet.
# Scc61 cells = test: Colony formation assay with gamma radiation; format: cell-based, human; conditions: PES + 2 Gy
# Protocol: as §1
# HSP70 [2] = test: Capture of HA-tagged HSP70 constructs from transfected H1299 cells with biotinylated compound; format: binding, human; conditions: biotinylated PES
# Protocol: FIG. 1. PES Binds to HSP70. (A) Whole cell extracts (WCE) prepared from A875 and BCL-xL over-expressing U2OS human osteosarcoma cells (BX-U2OS) cells, treated with Biotin or Biotin-PES (B-PES), were captured using NeutrAvidin agarose resins. HSP70-family proteins were identified as the major product in the excised band of ˜70 kDa shown in both Coomassie gels. (B and C) WCE were prepared from the cell lines indicated following 24 h treatment with 20 μM Biotin or B-PES and examined for the expression of proteins indicated (left panel of B and C) by western blot analysis; note that different exposure times were used to visualize these proteins. […] (D) In vitro evidence for an interaction between B-PES and HSP70. Full-length human HSP70 and human HSP90 proteins were in vitro translated in the presence of ^35S-methionine, mixed with B-PES coupled to NeutrAvidin resins, and eluted using 100 mM DTT. […] (F) Non-transformed human IMR90 fibroblasts or H1299 lung carcinoma cells were treated with the indicated concentrations of PES for 24 h and cell viability was determined by MTT assays. […]
# The free amide group of PES-Cl was biotinylated and added to HA-tagged HSP70-transfected H1299 cells. […] The complexes were pulled down with NeutrAvidin beads, eluted with 100 mM DTT treatments, separated with SDS-PAGE and detected with anti-HA antibody (Millipore) by Western blot. […]
# E. coli = test: Growth curves and morphology of E. coli at 35° C. or 43° C.; format: cell-based
# Protocol: FIG. 3. PES and E. coli. (A) Identification of DnaK as Biotin-PES (B-PES) interacting protein in bacteria by liquid chromatography-tandem mass spectrometry, as described herein below. (B) The amino acid sequence of DnaK (SEQ ID NO: 7); the residues detected by mass spectrometry are shown in bold and underlined. (C) Growth curves of E. coli treated with different concentrations of PES either at 35° C. or 43° C. […] (D) Bacterial morphology (phase contrast microscopy) following treatment of the cells with PES at the indicated temperatures. Note evidence of filamentation and aggregation at higher concentrations of PES, especially at 43° C.
# p62/SQSTM1, LC3 = test: Autophagy markers in cultured cells (vacuoles, LC3-II, p62/SQSTM1, electron microscopy); format: cell-based, human
# [3] = system: WI38 human fetal lung fibroblasts; test: MTT cell viability assay; format: cell-based; conditions: except at the highest concentration tested (20 μM)
# Protocol: (§2) Cell viability assays were performed using an MTT (methyl thiazolyl tetrazolium) colorimetric assay (Roche Applied Science, Cat. No. 11 465 007 001), with the following modifications. Briefly, cells (1×10^4) were plated into 24 well-assay plates in 0.5 ml media and allowed to attach overnight. […] After the incubation period, 50 μl of the water-soluble MTT labeling reagent [3-[4,5-dimethylthiazol-2-yl]-2,5-diphenyl tetrazolium bromid] were added to the cells, and the cells were incubated for 4 h in a humidified chamber at 37° C. with 5% CO2. The metabolized insoluble formazan crystals were then solubilized using 0.5 ml of the Solubilization solution (10% SDS in 0.01M HCl) per well, and the resulting colored solutions were spectrophotometrically quantified at an absorbance of 570 nm.
# [4] = system: H1299 human lung carcinoma cells; test: MTT cell viability assay; format: cell-based
# Protocol: as §2
smiles,measurement,setting,value
"NS(=O)(=O)C#Cc1ccccc1 [PES, 2-Phenylethynesulfonamide]",abundance of HSP70/BAG-1S complex,HSP70 [1],no detectable change
same,abundance of HSP70/HSP90 complexes,HSP70 [1],no change in the abundance of HSP70/HSP90 complexes
same,"HSP70 in association with CHIP, HSP40 and APAF1","HSP70 [1]; 20 μM, 24 h","less HSP70 in association with CHIP, HSP40 and APAF1"
same,HSP70 interaction with viral T antigen,"HSP70 [1]; 293 cells with SV40 T antigen, 20 μM",interfered with HSP70 and viral T antigen interactions
same,LAMP2 in a complex with HSP70,"HSP70 [1]; A875, MiaPaCa2, 20 μM, 24 h",significantly reduced the amount of LAMP2 in a complex with HSP70
same,complexes containing p53 and BAK or HSP70,"HSP70 [1]; A875 and HepG2 cells, PES 20 μM, with or without cisplatin 50 μM",not observed
same,interaction between HSP70 and BAG-1M,"HSP70 [1]; H1299, U2OS",clear decrease
same,HSP70 interaction with integrin α5 and integrin β1,HSP70 [1]; H1299 cells,reduced HSP70 and integrin α5 and integin β1 interactions
same,interaction between monomeric p62/SQSTM1 and HSP70,"HSP70 [1]; MiaPaCa2, A875",attenuated the interaction
same,colony formation with radiation,FADU cells,combine effectively to reduce the capacity to form colonies
same,colony formation with radiation,Scc61 cells,effectively diminished the capacity of these cells to form colonies
same,binding to HSP70 mutants L558R and Y611S,HSP70 [2],failed to bind PES
same,response of the bacteria to elevated temperatures,E. coli,"slow growth, filamentation, and reduced viability"
same,cell proliferation of E. coli,"E. coli; increasing concentrations, 35° C. or 43° C.",inhibited in a dose-dependent fashion
same,LC3-II level,"p62/SQSTM1, LC3; 20 μM",higher levels of LC3-II
same,autophagosomes and autophagolysosomes by electron microscopy,"p62/SQSTM1, LC3; 20 μM, 7 or 24 h",rapid and substantial increase in multiple double-membrane autophagosomes and single-membrane autophagolysosomes
same,intracytoplasmic vacuoles,"p62/SQSTM1, LC3; 24 h",progressive accumulation of intracytoplasmic vacuoles
same,p62/SQSTM1 oligomers in soluble and detergent-insoluble fractions,"p62/SQSTM1, LC3; 24 h, PES 20 μM, Velcade 100 nM, CQ 50 μM, 17-AAG 15 nM",higher molecular weight forms of p62/SQSTM1 in both the soluble and detergent-insoluble fractions
same,p62/SQSTM1 accumulation and oligomerization,"p62/SQSTM1, LC3; H1299 cells, increasing concentrations, 24 h",notable increase in p62/SQSTM1 accumulation and oligomerization
same,p62 oligomerization and LC3-II accumulation,"p62/SQSTM1, LC3; IMR90 cells, 24 h",only a modest degree of p62 oligomerization and LC3-II accumulation
same,interaction between LC3 and p62/SQSTM1,"p62/SQSTM1, LC3; IP-WB, MiaPaCa2, A875",enhanced the interaction
same,accumulation and oligomerization of p62/SQSTM1,"p62/SQSTM1, LC3; western blot",promotes an accumulation and oligomerization of p62/SQSTM1 in a time- and dose-dependent manner
same,cell viability,[3],no decrease in cell viability
same,cell viability,[4],effective at killing HI299 lung carcinoma cells; also recorded: dose-dependent loss of viability
same,PES-induced cell death after silencing of HSP70,"[4]; HSP70 shRNA, 20 μM PES 24 h",rescued PES-induced cell death
